Counter-ions that a name gives are not always drawn.
Tests used:
[1] = tested on: HCT116-Cas9; test: Growth suppression assay (resazurin); type: cell-based; settings: 48 hours of incubation
Method: (§1) Breast, colon, ovarian, cervical, liver and lung carcinoma cell lines were grown in DMEM supplemented with 10% FBS, and antibiotics were cultured at 37 °C and 5% CO2. […] To obtain an oxygen concentration of 0.05%, the cells were flushed with the premixed gas continuously throughout the experiment.
(§2) Cells were grown in 96-well plates at a density of 3000 cells per well with or without doxycycline and treated with compounds. After 48 hours of incubation the proliferative cell reagent resazurin (Thermo Fisher Scientific) was added to the cells. The degree of resazurin reduction, which reflects cell viability, was measured by microplate reader by monitoring the absorbance at 570 nm and 600 nm, according to the manufacturer.

[2] = tested on: MCF7-Cas9; test: Growth suppression assay (resazurin); type: cell-based; settings: 48 hours of incubation
Method: as §1, §2

[3] = Solubility (solvent); type: physicochemical; settings: solvent named in the table
[4] = biological target: TrxRl (Homo sapiens, UniProt Q16881); settings: cell extracts and crystal structure of tetrameric TrxRl; earlier publication of the applicants; cited from earlier work
Chain of TrxRl (Q16881 151-649): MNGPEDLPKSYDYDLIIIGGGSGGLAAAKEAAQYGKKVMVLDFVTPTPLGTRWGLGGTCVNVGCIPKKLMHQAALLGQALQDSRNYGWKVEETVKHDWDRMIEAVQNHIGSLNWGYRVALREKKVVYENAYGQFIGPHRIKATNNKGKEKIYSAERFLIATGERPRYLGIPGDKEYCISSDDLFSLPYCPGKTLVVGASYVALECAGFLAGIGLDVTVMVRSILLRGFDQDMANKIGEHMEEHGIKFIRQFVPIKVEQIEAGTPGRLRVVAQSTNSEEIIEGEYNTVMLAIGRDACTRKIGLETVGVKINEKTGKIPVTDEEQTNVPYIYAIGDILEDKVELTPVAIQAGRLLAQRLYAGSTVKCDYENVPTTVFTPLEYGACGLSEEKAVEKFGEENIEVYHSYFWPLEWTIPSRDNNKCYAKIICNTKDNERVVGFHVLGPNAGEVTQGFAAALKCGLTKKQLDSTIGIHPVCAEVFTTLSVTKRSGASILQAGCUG

N#Cc1c(-c2ccncc2)[n+]([O-])c2cc(N3CCOCC3)c(F)cc2[n+]1[O-] [1a*MsOH, 7-Fluoro-6-(morpholin-4-yl)-3-(pyridin-4-yl)quinoxaline-2-carbonitrile-1,4-dioxide methanesulfonate]
IC50 ([1]; methanesulfonate): 1.2 µM | IC50 ([2]; methanesulfonate): 2.4 µM

N#Cc1c(-c2ccncc2)[n+]([O-])c2cc(F)c(N3CCOCC3)cc2[n+]1[O-] [1b*HCl, 6-Fluoro-7-(morpholin-4-yl)-3-(pyridin-4-yl)quinoxaline-2-carbonitrile-1,4-dioxide hydrochloride]
IC50 ([1]; hydrochloride): 3.2 µM | IC50 ([2]; hydrochloride): 3.8 µM

N#Cc1c(-c2ccncc2)[n+]([O-])c2cc(F)c(N3CCOCC3)cc2[n+]1[O-] [1b*MsOH, 6-Fluoro-7-(morpholin-4-yl)-3-(pyridin-4-yl)quinoxaline-2-carbonitrile-1,4-dioxide methanesulfonate]
IC50 ([2]; methanesulfonate): 4.2 µM

N#Cc1c(-c2cccnc2)[n+]([O-])c2cc(N3CCOCC3)c(F)cc2[n+]1[O-] [1c*HCl, 7-Fluoro-6-(morpholin-4-yl)-3-(pyridin-3-yl)quinoxaline-2-carbonitrile-1,4-dioxide hydrochloride]
IC50 ([1]; hydrochloride): 10.9 µM | IC50 ([2]; 48 h): > 10 µM

N#Cc1c(-c2ccncc2)[n+]([O-])c2cc(N3CCOCC3)c(F)cc2[n+]1[O-] [Compound 1a, 7-Fluoro-6-(morpholin-4-yl)-3-(pyridin-4-yl)quinoxaline-2-carbonitrile 1,4-dioxide]
IC50 [1]: 3.5 µM | IC50 [2]: 6.9 µM | Solubility [3]: Warm DMSO

N#Cc1c(-c2ccncc2)[n+]([O-])c2cc(F)c(N3CCOCC3)cc2[n+]1[O-] [Compound 1b, 6-Fluoro-7-(morpholin-4-yl)-3-(pyridin-4-yl)quinoxaline-2-carbonitrile-1,4-dioxide]
IC50 ([1]; 48 h): 2.8 µM | IC50 ([2]; 48 h): 4.1 µM | Solubility [3]: Warm DMSO

N#Cc1c(-c2cccnc2)[n+]([O-])c2cc(N3CCOCC3)c(F)cc2[n+]1[O-] [Compound 1c, 7-Fluoro-6-(morpholin-4-yl)-3-(pyridin-3-yl)quinoxaline-2-carbonitrile-1,4-dioxide]
IC50 [1]: 3.3 µM | Solubility [3]: Warm DMSO

N#Cc1c(-c2cccnc2)[n+]([O-])c2cc(F)c(N3CCOCC3)cc2[n+]1[O-] [Compound 1d, 6-Fluoro-7-(morpholin-4-yl)-3-(pyridin-3-yl)quinoxaline-2-carbonitrile-1,4-dioxide]
IC50 [1]: 4.1 µM | Solubility [3]: Warm DMSO

N#Cc1c(-c2cccnc2)[n+]([O-])c2cc(F)c(N3CCCC3)cc2[n+]1[O-] [Compound 1f, 6-Fluoro-7-(pyrrolidin-1-yl)-3-(pyridin-3-yl)quinoxaline-2-carbonitrile-1,4-dioxide]
IC50 ([1]; 48 h): 2.2 µM | IC50 ([2]; 48 h): 3.8 µM | Solubility [3]: Warm DMSO

N#Cc1c(-c2cccnc2)[n+]([O-])c2cc(F)c(N3CCCCC3)cc2[n+]1[O-] [Compound 1g, 6-Fluoro-7-(piperidin-1-yl)-3-(pyridin-3-yl)quinoxaline-2-carbonitrile-1,4-dioxide]
IC50 ([1]; 48 h): 2.8 µM | IC50 ([2]; 48 h): 4.1 µM | Solubility [3]: Warm DMSO

OCc1ccc(-c2ccc(-c3ccc(CO)s3)o2)s1 [RITA]
covalent link between TrxRl subunits [4]: induced the formation of a covalent link between two oxidized Trp114 residues
